Test results as given in patent US9969742B2, “Imidazotriazinone compounds” (Ironwood Pharmaceuticals, Inc., priority 2012, dated 2018).

Target: T1, PDE9A2 (Homo sapiens, UniProt O76083)
T1 construct: purchased Reaction Biology Corporation, Malvern, Pa
Experiment: Phosphodiesterase enzyme screening assay, PDE9A2
Type: biochemical
Conditions: 4.0 μM cGMP substrate, 1 hour at R.T.; read-out: Band (PDE9A2 IC50)
From the text: Compounds of the invention were screened against PDE1A, PDE1B, PDE2A, PDE3A, PDE3B, PDE4A1A, PDE4B1, PDE4D3, PDE5A1, PDE6C, PDE7A, PDE8A1, PDE9A2, PDE10A2 AND PDE11A isoforms of the phosphodiesterase enzyme to determine activity and overall selectivity through comparative analysis. […] Where 8-methoxy-IBMX and Zaprinast were used as reference inhibitors.
The phosphodiesterase enzyme isoforms were obtained from a commercial retailer (Reaction Biology Corporation, Malvern, Pa.) for use in the instant screening assay.
The analysis was completed using the Caliper LabChip 3000 and a 12-sipper LabChip. LabChip assays are separations-based, meaning that the product and substrate are electrophoretically separated, thereby minimizing interferences and yielding the highest data quality available on any screening platform. […] High Z′ values, few false positives, few false negatives and analytical quality reproducibility are the reasons cited for the increasing reliance on the LabChip assays.
The off-chip incubation mobility-shift phosphodiesterase assay uses a microfluidic chip to measure the conversion of a fluorescent cyclic AMP substrate to a 5′-AMP product, or a cyclic GMP substrate to a 5′-GMP product. The reaction mixture, from a microtiter plate well, is introduced through a capillary sipper onto the chip, where the fluorescent substrate and product are separated by electrophoresis and detected via laser-induced fluorescence. […] The precision of microfluidics allows researchers to detect subtle interactions between drug candidates and therapeutic targets.
Reactions were carried out in 100 mM HEPES (pH 7.5), 5 mM MgCl2, 1 mM DTT, 0.003% Brij, 4.0 μM cGMP substrate. The reaction was started by addition of cGMP or cAMP and incubated for 1 hour at R.T. The reaction was terminated by the addition of stop buffer containing 100 mM HEPES (pH 7.5), 15 mM EDTA, 0.015% Brij-35, 5% DMSO. Cyclic AMP/GMP substrate and 5′-AMP/5′-GMP product were separated by charge using electrophoretic mobility shift. Product formed was compared to control wells to determine inhibition or enhancement of enzyme activity.
Data points were averages of quadruplicate wells and error bars represented the SEM for each point.

T1 sequence (O76083 1-533 isoform O76083-2): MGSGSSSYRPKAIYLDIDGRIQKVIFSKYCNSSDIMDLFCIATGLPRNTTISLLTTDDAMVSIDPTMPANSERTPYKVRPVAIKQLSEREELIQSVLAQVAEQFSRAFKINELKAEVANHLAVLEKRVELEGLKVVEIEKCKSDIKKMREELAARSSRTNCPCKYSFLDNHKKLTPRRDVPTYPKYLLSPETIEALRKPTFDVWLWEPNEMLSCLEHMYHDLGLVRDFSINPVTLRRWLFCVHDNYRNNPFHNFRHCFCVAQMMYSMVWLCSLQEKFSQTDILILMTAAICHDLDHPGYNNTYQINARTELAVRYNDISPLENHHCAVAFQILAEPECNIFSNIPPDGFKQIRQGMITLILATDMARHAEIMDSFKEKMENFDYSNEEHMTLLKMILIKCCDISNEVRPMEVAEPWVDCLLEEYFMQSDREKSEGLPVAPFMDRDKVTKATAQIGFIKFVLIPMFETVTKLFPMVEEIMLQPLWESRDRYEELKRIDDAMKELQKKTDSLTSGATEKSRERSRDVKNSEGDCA

Row | IC50 [nM] | Compound
1 | < 1000 | CC1CN(Cc2ccccc2)CC1c1nn2c(CC(F)(F)F)ncc2c(=O)[nH]1 (single isomer, unassigned; (+)) [(+)-2-((3,4-trans)-1-benzyl-4-methylpyrrolidin-3-yl)-7-(2,2,2-trifluoroethyl) imidazo [5,1-f] [1,2,4] triazin-4 (3H)-one]

Same assay, conditions: Table 1; 10 concentrations; 4.0 μM cGMP substrate; 1 hour at R.T.; read-out: Band (PDE9A2 IC50)

Row | Compound | IC50 [nM]
2 | CCS(=O)(=O)N1CC(C)C(c2nn3c(C4CCOCC4)ncc3c(=O)[nH]2)C1 (single isomer, unassigned; (+)) [(+)-2-((3,4-trans)-1-(ethylsulfonyl)-4-methylpyrrolidin-3-yl)-7-(tetrahydro-2H-pyran-4-yl)imidazo[5,1-f][1,2,4]triazin-4(3H)-one] | 1000 to 10000
3 | CC1CN(C(=O)c2ccccc2)CC1c1nn2c(C3CCOCC3)ncc2c(=O)[nH]1 (single isomer, unassigned; (+)) [(+)-2-((3,4-trans)-1-benzoyl-4-methylpyrrolidin-3-yl)-7-(tetrahydro-2H-pyran-4-yl)imidazo[5,1-f][1,2,4]triazin-4(3H)-one] | 1000 to 10000
4 | Cc1ccc(F)cc1-c1ncc2c(=O)[nH]c(C3CN(Cc4ccccc4)CC3C)nn12 (single isomer, unassigned; (+)) [(+)-2-((3,4-trans)-1-benzyl-4-methylpyrrolidin-3-yl)-7-(5-fluoro-2-methylphenyl)imidazo[1,5-f][1,2,4]triazin-4(3H)-one] | < 1000
5 | CC1CN(Cc2ccccc2)CC1c1nn2c(C3CCOCC3)ncc2c(=O)[nH]1 (single isomer, unassigned; (+)) [(+)-2-((3,4-trans)-1-benzyl-4-methylpyrrolidin-3-yl)-7-(tetrahydro-2H-pyran-4-yl)imidazo[1,5-f][1,2,4]triazin-4(3H)-one] | < 1000
6 | CC1CN(C(=O)c2ccccc2C#N)CC1c1nn2c(C3CCOCC3)ncc2c(=O)[nH]1 (single isomer, unassigned; (+)) [(+)-2-((3,4-trans)-3-methyl-4-(4-oxo-7-(tetrahydro-2H-pyran-4-yl)-3,4-dihydroimidazo[5,1-f][1,2,4]triazin-2-yl)pyrrolidine-1-carbonyl)benzonitrile] | 1000 to 10000

Next, values leading:

Row | IC50 [nM] | Compound
7 | < 1000 | CC1CN(S(=O)(=O)c2ccccc2)CC1c1nn2c(C3CCOCC3)ncc2c(=O)[nH]1 (single isomer, unassigned; (+)) [(+)-2-((3,4-trans)-4-methyl-1-(phenylsulfonyl)pyrrolidin-3-yl)-7-(tetrahydro-2H-pyran-4-yl)imidazo[5,1-f][1,2,4]triazin-4(3H)-one]
8 | < 1000 | CC1CN(S(=O)(=O)c2cccnc2)CC1c1nn2c(C3CCOCC3)ncc2c(=O)[nH]1 (single isomer, unassigned; (+)) [(+)-2-((3,4-trans)-4-methyl-1-(pyridin-3-ylsulfonyl)pyrrolidin-3-yl)-7-(tetrahydro-2H-pyran-4-yl)imidazo[5,1-f][1,2,4]triazin-4(3H)-one]
9 | < 1000 | CC1CN(Cc2ncccn2)CC1c1nn2c(C3CCOC3)ncc2c(=O)[nH]1 (single isomer, unassigned; (+)) [(+)-2-((3,4-trans)-4-methyl-1-(pyrimidin-2-ylmethyl)pyrrolidin-3-yl)-7-(tetrahydrofuran-3-yl)imidazo[5,1-f][1,2,4]triazin-4(3H)-one]
10 | 1000 to 10000 | CC1CN(C(=O)c2ncccn2)CC1c1nn2c(C3CCOCC3)ncc2c(=O)[nH]1 (single isomer, unassigned; (+)) [(+)-2-((3,4-trans)-4-methyl-1-(pyrimidine-2-carbonyl)pyrrolidin-3-yl)-7-(tetrahydro-2H-pyran-4-yl)imidazo[5,1-f][1,2,4]triazin-4(3H)-one]

Same assay, conditions: Table 2; 10 concentrations; 4.0 μM cGMP substrate; 1 hour at R.T.; read-out: Band (PDE9A2 IC50)

Row | IC50 [nM] | Compound
11 | < 1000 | CC1CN(CC(F)(F)F)CC1c1nn2c(C3CCOCC3)ncc2c(=O)[nH]1 (single isomer, unassigned; (+)) [(+)-2-((3,4-trans)-4-methyl-1-(2,2,2-trifluoroethyl)pyrrolidin-3-yl)-7-(tetrahydro-2H-pyran-4-yl)imidazo[5,1-f][1,2,4]triazin-4(3H)-one]
12 | 1000 to 10000 | CC1CN(C(=O)Cc2cncnc2)CC1c1nn2c(C3CCOCC3)ncc2c(=O)[nH]1 (single isomer, unassigned; (+)) [(+)-2-((3,4-trans)-4-methyl-1-(2-(pyrimidin-5-yl)acetyl)pyrrolidin-3-yl)-7-(tetrahydro-2H-pyran-4-yl)imidazo[5,1-f][1,2,4]triazin-4(3H)-one]
13 | < 1000 | CSc1cnc(CN2CC(C)C(c3nn4c(C5CCOCC5)ncc4c(=O)[nH]3)C2)nc1 (single isomer, unassigned; (+)) [(+)-2-((3,4-trans)-4-methyl-1-((5-(methylthio)pyrimidin-2-yl)methyl)pyrrolidin-3-yl)-7-(tetrahydro-2H-pyran-4-yl)imidazo[5,1-f][1,2,4]triazin-4(3H)-one]
14 | < 1000 | CC1CN(Cc2ncc(C(F)(F)F)cn2)CC1c1nn2c(C3CCOCC3)ncc2c(=O)[nH]1 (single isomer, unassigned; (+)) [(+)-2-((3,4-trans)-4-methyl-1-((5-(trifluoromethyl)pyrimidin-2-yl)methyl)pyrrolidin-3-yl)-7-(tetrahydro-2H-pyran-4-yl)imidazo[5,1-f][1,2,4]triazin-4(3H)-one]

Same assay, conditions: read-out: Band (PDE9A2 IC50)

Row | Compound | IC50 [nM]
15 | CC1CN(CC2CCCC2)CC1c1nn2c(C3CCOCC3)ncc2c(=O)[nH]1 (single isomer, unassigned; (+)) [(+)-2-((3,4-trans)-1-(cyclopentylmethyl)-4-methylpyrrolidin-3-yl)-7-(tetrahydro-2H-pyran-4-yl)imidazo[5,1-f][1,2,4]triazin-4(3H)-one] | < 1000
16 | CC1CN(CC2CC2)CC1c1nn2c(C3CCOCC3)ncc2c(=O)[nH]1 (single isomer, unassigned; (+)) [(+)-2-((3,4-trans)-1-(cyclopropylmethyl)-4-methylpyrrolidin-3-yl)-7-(tetrahydro-2H-pyran-4-yl)imidazo[5,1-f][1,2,4]triazin-4(3H)-one] | 1000 to 10000
17 | CC1CN(Cc2cn3ccccc3n2)CC1c1nn2c(-c3ccccc3)ncc2c(=O)[nH]1 (single isomer, unassigned; (+)) [(+)-2-((3,4-trans)-1-(imidazo[1,2-a]pyridin-2-ylmethyl)-4-methylpyrrolidin-3-yl)-7-phenylimidazo[5,1-f][1,2,4]triazin-4(3H)-one] | < 1000
18 | CC1CN(Cc2ccccc2)CC1c1nn2c(C3CCCC3)ncc2c(=O)[nH]1 (single isomer, unassigned; (+)) [(+)-2-((3,4-trans)-1-benzyl-4-methylpyrrolidin-3-yl)-7-cyclopentylimidazo[5,1-f][1,2,4]triazin-4(3H)-one] | < 1000

Further lines, results first:

Row | IC50 [nM] | Compound
19 | 1000 to 10000 | CC1CN(CC2CCN(C)CC2)CC1c1nn2c(C3CCOCC3)ncc2c(=O)[nH]1 (single isomer, unassigned; (+)) [(+)-2-((3,4-trans)-4-methyl-1-((1-methylpiperidin-4-yl)methyl)pyrrolidin-3-yl)-7-(tetrahydro-2H-pyran-4-yl)imidazo[5,1-f][1,2,4]triazin-4(3H)-one]
20 | < 1000 | CCC(CC)c1ncc2c(=O)[nH]c(C3CN(Cc4ncccn4)CC3C)nn12 (single isomer, unassigned; (+)) [(+)-2-((3,4-trans)-4-methyl-1-(pyrimidin-2-ylmethyl)pyrrolidin-3-yl)-7-(pentan-3-yl)imidazo[5,1-f][1,2,4]triazin-4(3H)-one]
21 | < 1000 | CC1CN(Cc2ncccn2)CC1c1nn2c(-c3ccccc3)ncc2c(=O)[nH]1 (single isomer, unassigned; (+)) [(+)-2-((3,4-trans)-4-methyl-1-(pyrimidin-2-ylmethyl)pyrrolidin-3-yl)-7-phenylimidazo[5,1-f][1,2,4]triazin-4(3H)-one]
